The values below come from ChEMBL document CHEMBL1156553, “Prenylated dihydrochalcones from Boronia bipinnata that inhibit the malarial parasite enzyme target hemoglobinase II” (J Nat Prod, 2008).

Each structure is given as a SMILES string.

The experiment can be described thus: Inhibition of recombinant hemoglobinase 2.
Usually IC50 stands for the point on the concentration scale where inhibition reaches its midpoint. On to `CC(C)=CCC/C(C)=C/CC/C(C)=C/Cc1cc(CCC(=O)c2c(O)cc(O)cc2O)ccc1O` [BIPINNATONE A], for which the IC50 stood at 64 µM.
In the case of `CC(C)=CCC/C(C)=C/Cc1cc(CCC(=O)c2c(O)cc(O)cc2O)ccc1O` [BIPINNATONE B], the IC50 was 51 µM.
`CC(C)CC(=O)N[C@H](C(=O)N[C@H](C(=O)N[C@@H](CC(C)C)[C@@H](O)CC(=O)N[C@@H](C)C(=O)N[C@@H](CC(C)C)[C@@H](O)CC(=O)O)C(C)C)C(C)C` [PEPSTATIN]: the 50% inhibitory concentration (IC50) came out at 0.003 µM.
